Reference: patent US20040197852A1, “Method of preparing peptide fragment having cell death inhibitory activity” (priority 2001, published 2004)

B1: Selenoprotein P untreated: full-length selenoprotein P purified from human plasma in Example 1, M.W. around 67,000 in SDS-PAGE (protein, UniProt P49908 20-381, looked up)
Selenoprotein P: ESQDQSSLCKQPPAWSIRDQDPMLNSNGSVTVVALLQASUYLCILQASKLEDLRVKLKKEGYSNISYIVVNHQGISSRLKYTHLKNKVSEHIPVYQQEENQTDVWTLLNGSKDDFLIYDRCGRLVYHLGLPFSFLTFPYVEEAIKIAYCEKKCGNCSLTTLKDEDFCKRVSLATVDKTVETPSPHYHHEHHHNHGHQHLGSSELSENQQPGAPNAPTHPAPPGLHHHHKHKGQHRQGHPENRDMPASEDLQDLQKKLCRKRCINQLLCKLPTDSELAPRSUCCHCRHLIFEKTGSAITUQCKENLPSLCSUQGLRAEENITESCQURLPPAAUQISQQLIPTEASASURUKNQAKKUEUPSN

Tested on: Dami cells
Experiment: Cell death-inhibitory activity in Dami cells in serum-free medium with BSA and linoleic acid
Assay type: cell-based, human
Details: each 1 ppm selenium added to the system; Dami cells
Excerpt: For screening a cell death-inhibitory activity for isolation and identification of the C-terminal fragment of selenoprotein P as described above, a culture system of Dami cells, human megakaryoblasts, with serum free culture medium supplemented with albumin was suitably used. […] With culture medium containing 0.01 to 0.5% human serum albumin, the cells grow normally but on Day 4 and henceforth all the cells are put to death abruptly. A cell death-inhibitory activity in a sample may be measured by applying the sample to this culture system.
The cells were cultured for three days and recovered for assay. The recovered cells were washed twice with SA/0.05% skimmed BSA (manufactured by SIGMA) containing 4 μM linoleic acid and suspended in the same medium at 3×10^4 cells/mL. The cell suspension was then added to a 96-well plate in each 200 μl for wells for sample addition or in each 100 μl for wells for serial dilution. To the wells for sample addition was added 2 μl sample and, after stirring, a serial dilution was made with the wells containing 100 μl cell suspension. The plate was incubated at 37° C. in CO2 incubator for 4 to 5 days followed by assessment. In this system, Dami cells will die in the wells added with samples having no activity but will survive in the wells added with samples having the activity on Day 4 and thenceforth. Thus, assessment was made with to what folds of dilution of tested samples the living cells could survive. Therefore, the higher the value in the following table, the higher a cell death-inhibitory activity.
After washing the column with about 8 mL PBS, elution was made with 0.1 M glycine, pH 2.8. The eluate fractions were neutralized with about 1/10 amount of 1 M Tris-HCl. The fraction that passed through chromatographic column and the washing fractions were pooled, concentrated with SpeedVac, and dialyzed against PBS.

With B1 as the molecule, how does the “Cell death-inhibitory activity (Folds of dilution)” value read?
The value was 5000 Folds of dilution.

Same assay, conditions: selenoprotein P digested with 1/10 weight of enzyme, 37° C., 24 hours; 2 μl sample serially diluted; Dami cell survival at 4 to 5 days

Activated protein C was tested. Which “Cell death-inhibitory activity (Folds of dilution)” value did it give?
The value was 800 Folds of dilution.

How did the “Cell death-inhibitory activity (Folds of dilution)” value turn out when Thrombin was run?
Its value is 600 Folds of dilution.

Trypsin was tested. Which “Cell death-inhibitory activity (Folds of dilution)” value did it give?
The value was 600 Folds of dilution.

Which “Cell death-inhibitory activity (Folds of dilution)” value does the source give for Elastase here?
Its value is 600 Folds of dilution.

How did the “Cell death-inhibitory activity (Folds of dilution)” value turn out when Plasmin was run?
Its value is 600 Folds of dilution.

B1 was tested. Which “Cell death-inhibitory activity (Folds of dilution)” value did it give?
Its value is 400 Folds of dilution.
